Results as given in ChEMBL document CHEMBL1142200, “Efficacy of delayed treatment with ST-246 given orally against systemic orthopoxvirus infections in mice” (Antimicrob Agents Chemother, 2007).
Active and inactive are the calls of the source. The calls are words filed in the database; no cut-off is given here.

What was measured:
Mus musculus [1] = assay: Effect on mortality of BALB/c mouse inoculated with Cowpox virus BR at 100 mg/kg after 24 hrs of viral infection, po once daily for 10 days relative to control; format: functional
Mus musculus [2] = assay: Effect on mortality of BALB/c mouse inoculated with Cowpox virus at 100 mg/kg after 72 hrs of viral infection, po once daily for 14 days relative to control; format: functional
Ectromelia virus [3] = assay: Reduction of Ectromelia virus replication in BALB/c mouse spleen at 100 mg/kg, po once daily after 4 days; format: functional, organism-based; parameters: dose 100 mg/kg
Ectromelia virus [4] = assay: Reduction of Ectromelia virus replication in BALB/c mouse esophagus at 100 mg/kg, po once daily after 4 days; format: functional, organism-based; parameters: dose 100 mg/kg
Vaccinia virus [5] = assay: Reduction of Vaccinia virus WR replication in BALB/c mouse liver at 50 mg/kg after 24 hrs of viral infection, po for 9 days; format: functional, organism-based; parameters: dose 50 mg/kg; conditions: Orthopoxvirus vaccinia
Cowpox virus [6] = assay: Reduction of Cowpox virus BR replication in BALB/c mouse spleen at 50 mg/kg after 24 hrs of viral infection, po for 9 days; format: functional, organism-based; parameters: dose 50 mg/kg
Ectromelia virus [7] = assay: Reduction of Ectromelia virus replication in BALB/c mouse lung at 100 mg/kg, po once daily after 6 days; format: functional, organism-based; parameters: dose 100 mg/kg
[8] = Selectivity index, ratio of CC50 for HFF cells to EC50 for Vaccinia virus Copenhagen infected HFF cells; format: functional
Mus musculus [9] = assay: Effect on mortality of BALB/c mouse inoculated with Cowpox virus at 10 mg/kg after 48 hrs of viral infection, po once daily for 14 days relative to control; format: functional
Vaccinia virus [10] = assay: Reduction of Vaccinia virus WR replication in BALB/c mouse kidney at 50 mg/kg after 24 hrs of viral infection, po for 9 days; format: functional, organism-based; parameters: dose 50 mg/kg; conditions: Orthopoxvirus vaccinia
Ectromelia virus [11] = assay: Reduction of Ectromelia virus replication in BALB/c mouse spleen at 100 mg/kg, po once daily after 8 days; format: functional, organism-based; parameters: dose 100 mg/kg
Ectromelia virus [12] = assay: Reduction of Ectromelia virus replication in BALB/c mouse lung at 100 mg/kg, po once daily after 8 days; format: functional, organism-based; parameters: dose 100 mg/kg
Mus musculus [13] = assay: Effect on mortality of BALB/c mouse inoculated with Cowpox virus BR at 100 mg/kg after 4 hrs of viral infection, po once daily for 7 days relative to control; format: functional
Ectromelia virus [14] = assay: Reduction of Ectromelia virus replication in BALB/c mouse spleen at 100 mg/kg, po once daily after 14 days; format: functional, organism-based; parameters: dose 100 mg/kg
Ectromelia virus [15] = assay: Reduction of Ectromelia virus replication in BALB/c mouse liver at 100 mg/kg, po once daily after 4 days; format: functional, organism-based; parameters: dose 100 mg/kg
Mus musculus [16] = assay: Effect on mortality of BALB/c mouse inoculated with Vaccinia virus WR at 100 mg/kg after 4 hrs of viral infection, po once daily for 10 days relative to control; format: functional
Mus musculus [17] = assay: Effect on mortality of BALB/c mouse inoculated with Cowpox virus BR at 100 mg/kg after 24 hrs of viral infection, po once daily for 14 days relative to control; format: functional
Ectromelia virus [18] = assay: Reduction of Ectromelia virus replication in BALB/c mouse trachea at 100 mg/kg, po once daily after 4 days; format: functional, organism-based; parameters: dose 100 mg/kg
Mus musculus [19] = assay: Effect on mortality of A/NCr mouse inoculated with 4.1 PFU ectromelia virus at 100 mg/kg after 4 hrs of viral infection, po twice daily for 14 days; format: functional
Mus musculus [20] = assay: Effect on mortality of BALB/c mouse inoculated with Vaccinia virus WR at 100 mg/kg after 24 hrs of viral infection, po once daily for 10 days relative to control; format: functional
[21] = Selectivity index, ratio of CC50 for HFF cells to EC50 for Vaccinia virus WR infected HFF cells; format: functional
Mus musculus [22] = assay: Effect on mortality of BALB/c mouse inoculated with Cowpox virus at 30 mg/kg after 24 hrs of viral infection, po once daily for 14 days relative to control; format: functional
Ectromelia virus [23] = assay: Reduction of Ectromelia virus replication in BALB/c mouse liver at 100 mg/kg, po once daily after 6 days; format: functional, organism-based; parameters: dose 100 mg/kg
Ectromelia virus [24] = assay: Reduction of Ectromelia virus replication in BALB/c mouse lung at 100 mg/kg, po once daily after 4 days; format: functional, organism-based; parameters: dose 100 mg/kg
Cowpox virus [25] = assay: Reduction of Cowpox virus BR replication in BALB/c mouse liver at 50 mg/kg after 24 hrs of viral infection, po for 9 days; format: functional, organism-based; parameters: dose 50 mg/kg
Mus musculus [26] = assay: Effect on mortality of BALB/c mouse inoculated with Cowpox virus BR at 100 mg/kg after 24 hrs of viral infection, po once daily for 5 days relative to control; format: functional
Mus musculus [27] = assay: Effect on mortality of BALB/c mouse inoculated with Cowpox virus at 100 mg/kg after 4 hrs of viral infection, po once daily for 14 days relative to control; format: functional
Mus musculus [28] = assay: Effect on mortality of BALB/c mouse inoculated with Vaccinia virus WR at 100 mg/kg after 24 hrs of viral infection, po once daily for 7 days relative to control; format: functional
Mus musculus [29] = assay: Effect on mortality of BALB/c mouse inoculated with Cowpox virus BR at 100 mg/kg after 4 hrs of viral infection, po once daily for 10 days relative to control; format: functional
Vaccinia virus [30] = assay: Reduction of Vaccinia virus WR replication in BALB/c mouse lung at 50 mg/kg after 24 hrs of viral infection, po for 9 days; format: functional, organism-based; parameters: dose 50 mg/kg; conditions: Orthopoxvirus vaccinia
Mus musculus [31] = assay: Effect on mortality of A/NCr mouse inoculated with ectromelia virus at 100 mg/kg after 72 hrs of viral infection, po once daily for 10 days relative control; format: functional

## O=C(NN1C(=O)[C@@H]2[C@@H]3C=C[C@@H]([C@H]4C[C@@H]34)[C@@H]2C1=O)c1ccc(C(F)(F)F)cc1 [TECOVIRIMAT]
Mus musculus [1]
  Activity: 40%
Mus musculus [2]
  Activity: 40%
Ectromelia virus [3]
  Activity: Active
Ectromelia virus [4]
  Activity: Active
Vaccinia virus [5]
  Activity: Active
Cowpox virus [6]
  Activity: Active
Ectromelia virus [7]
  Activity: Active
[8]
  Ratio CC50/EC50: >2000
Mus musculus [9]
  Activity: 13%
Vaccinia virus [10]
  Activity: Active
Ectromelia virus [11]
  Activity: Active
Ectromelia virus [12]
  Activity: Active
Mus musculus [13]
  Activity: 7%
Ectromelia virus [14]
  Activity: Active
Ectromelia virus [15]
  Activity: Active
Mus musculus [16]
  Activity: 33%
Mus musculus [17]
  Activity: 0%
Ectromelia virus [18]
  Activity: Active
Mus musculus [19]
  Activity: 0%
Mus musculus [20]
  Activity: 0%
[21]
  Ratio CC50/EC50: >1000
Mus musculus [22]
  Activity: 40%
Ectromelia virus [23]
  Activity: Active
Ectromelia virus [24]
  Activity: Active
Cowpox virus [25]
  Activity: Active
Mus musculus [26]
  Activity: 73%
Mus musculus [27]
  Activity: 11%
Mus musculus [28]
  Activity: 7%
Mus musculus [29]
  Activity: 27%
Vaccinia virus [30]
  Activity: Active
Mus musculus [31]
  Activity: 0%
